Test results published in patent publication US20210045385A1, “PYRIDAZINONE-SUBSTITUTED KETOXIMES AS HERBICIDES” (FMC Corporation, priority 2018, published 2021).

What was measured:
Type in all cases: in vivo
[1] = tested on: duck salad (Heteranthera limosa); experiment: Test D flooded paddy test, visual plant response rating; settings: 250 g ai/ha, scale 0 to 100 (0 no effect, 100 complete control), 13 to 15 d
How it was run: (§1)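 Greenhouse paddy assay scored on a 0–100 visual scale after 13 to 15 d, where 100 means complete control and a dash marks no result; dosing was into 3 cm floodwater over 2-leaf plants.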

[2] = tested on: sedge umbrella (small-flower umbrella sedge, Cyperus difformis); experiment: as above; settings: 250 g ai/ha, scale 0 to 100 (0 no effect, 100 complete control), 13 to 15 d
How it was run: as §1

[3] = tested on: rice (Oryza sativa); experiment: as above; settings: 250 g ai/ha, scale 0 to 100 (0 no effect, 100 complete control), 13 to 15 d
How it was run: as §1

[4] = tested on: barnyardgrass (Echinochloa crus-galli); experiment: as above; settings: 250 g ai/ha, scale 0 to 100 (0 no effect, 100 complete control), 13 to 15 d
How it was run: as §1

[5] = tested on: kochia (Bassia scoparia); experiment: Test C postemergence, visual plant response rating
How it was run: (§2)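 Seeds sown in a loam–sand blend got a directed preemergence soil spray; postemergence plants (2–10 cm, one- to two-leaf stage) were sprayed with compound in a non-phytotoxic solvent plus surfactant. Injury was scored visually against untreated controls after about 10 d in a greenhouse on a 0–100 scale (100 = complete control).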

[6] = tested on: Italian ryegrass (Lolium mutiflorum); experiment: Test C postemergence, visual plant response rating
How it was run: as §2

[7] = tested on: ragweed (common ragweed, Ambrosia artemisiifolia); experiment: Test C postemergence, visual plant response rating
How it was run: as §2

[8] = tested on: corn (Zea mays); experiment: Test C postemergence, visual plant response rating
How it was run: as §2

[9] = tested on: blackgrass (Alopecurus myosuroides); experiment: Test C postemergence, visual plant response rating
How it was run: as §2

[10] = tested on: wheat (Triticum aestivum); experiment: Test C postemergence, visual plant response rating
How it was run: as §2

[11] = tested on: foxtail, giant (giant foxtail, Setaria faberi); experiment: Test C postemergence, visual plant response rating
How it was run: as §2

[12] = tested on: pigweed (Amaranthus retroflexus); experiment: Test C postemergence, visual plant response rating
How it was run: as §2

[13] = tested on: galium (catchweed bedstraw, Galium aparine); experiment: Test C postemergence, visual plant response rating
How it was run: as §2

[14] = tested on: barnyardgrass (Echinochloa crus-galli); experiment: Test C postemergence, visual plant response rating
How it was run: as §2

[15] = tested on: kochia (Bassia scoparia); experiment: Test C preemergence, visual plant response rating
How it was run: as §2

[16] = tested on: Italian ryegrass (Lolium mutiflorum); experiment: Test C preemergence, visual plant response rating
How it was run: as §2

[17] = tested on: ragweed (common ragweed, Ambrosia artemisiifolia); experiment: Test C preemergence, visual plant response rating
How it was run: as §2

[18] = tested on: foxtail, giant (giant foxtail, Setaria faberi); experiment: Test C preemergence, visual plant response rating
How it was run: as §2

[19] = tested on: pigweed (Amaranthus retroflexus); experiment: Test C preemergence, visual plant response rating
How it was run: as §2

[20] = tested on: barnyardgrass (Echinochloa crus-galli); experiment: Test C preemergence, visual plant response rating
How it was run: as §2

[21] = Test C, postemergence, 125 g ai/ha
[22] = Test C, 31 g ai/ha, 0 is no effect, 100 is complete control

## Cc1nn(C)c(=O)c(C(=NOC(C)C)c2cc(Cl)cc(Cl)c2F)c1O [Compound 167]
[1]
  Plant response rating, Ducksalad (Flood): 70
[2]
  Plant response rating, Sedge, Umbrella (Flood): 95
[3]
  Plant response rating, Rice (Flood): 65
[4]
  Plant response rating, Barnyardgrass (Flood): 95
[5]; Postemergence, 31 g ai/ha
  Kochia plant response rating (0 to 100 scale): 80
[5]; [21]
  Kochia plant response rating (0 to 100 scale): 100
[6]; Postemergence, 31 g ai/ha
  Ryegrass, Italian plant response rating (0 to 100 scale): 100
[6]; [21]
  Ryegrass, Italian plant response rating (0 to 100 scale): 100
[7]; Postemergence, 31 g ai/ha
  Ragweed plant response rating (0 to 100 scale): 100
[7]; [21]
  Ragweed plant response rating (0 to 100 scale): 100
[8]; Postemergence, 31 g ai/ha
  Corn plant response rating (0 to 100 scale): 30
[8]; [21]
  Corn plant response rating (0 to 100 scale): 70
[9]; Postemergence, 31 g ai/ha
  Blackgrass plant response rating (0 to 100 scale): 80
[9]; [21]
  Blackgrass plant response rating (0 to 100 scale): 90
[10]; Postemergence, 31 g ai/ha
  Wheat plant response rating (0 to 100 scale): 70
[10]; [21]
  Wheat plant response rating (0 to 100 scale): 100
[11]; Postemergence, 31 g ai/ha
  Foxtail, Giant plant response rating (0 to 100 scale): 90
[11]; [21]
  Foxtail, Giant plant response rating (0 to 100 scale): 90
[12]; Postemergence, 31 g ai/ha
  Pigweed plant response rating (0 to 100 scale): 100
[12]; [21]
  Pigweed plant response rating (0 to 100 scale): 100
[13]; Postemergence, 31 g ai/ha
  Galium plant response rating (0 to 100 scale): 80
[13]; [21]
  Galium plant response rating (0 to 100 scale): 100
[14]; Postemergence, 31 g ai/ha
  Barnyardgrass plant response rating (0 to 100 scale): 80
[14]; [21]
  Barnyardgrass plant response rating (0 to 100 scale): 90
[15]; 125 g ai/ha
  Kochia plant response rating (0 to 100 scale): 100
[15]; [22]
  Kochia plant response rating (0 to 100 scale): 70
[16]; 125 g ai/ha
  Ryegrass, Italian plant response rating (0 to 100 scale): 100
[16]; [22]
  Ryegrass, Italian plant response rating (0 to 100 scale): 100
[17]; 125 g ai/ha
  Ragweed plant response rating (0 to 100 scale): 100
[17]; [22]
  Ragweed plant response rating (0 to 100 scale): 80
[18]; 125 g ai/ha
  Foxtail, Giant plant response rating (0 to 100 scale): 100
[18]; [22]
  Foxtail, Giant plant response rating (0 to 100 scale): 100
[19]; 125 g ai/ha
  Pigweed plant response rating (0 to 100 scale): 100
[19]; [22]
  Pigweed plant response rating (0 to 100 scale): 100
[20]; 125 g ai/ha
  Barnyardgrass plant response rating (0 to 100 scale): 100
[20]; [22]
  Barnyardgrass plant response rating (0 to 100 scale): 100

## CO/N=C(/c1cc(C)cc(Cl)c1)c1c(O)c(C)nn(C)c1=O [Compound 173]
[1]
  Plant response rating, Ducksalad (Flood): 0
[2]
  Plant response rating, Sedge, Umbrella (Flood): 0
[3]
  Plant response rating, Rice (Flood): 0
[4]
  Plant response rating, Barnyardgrass (Flood): 0
[5]; Postemergence, 31 g ai/ha
  Kochia plant response rating (0 to 100 scale): 60
[5]; [21]
  Kochia plant response rating (0 to 100 scale): 90
[6]; Postemergence, 31 g ai/ha
  Ryegrass, Italian plant response rating (0 to 100 scale): 80
[6]; [21]
  Ryegrass, Italian plant response rating (0 to 100 scale): 100
[7]; Postemergence, 31 g ai/ha
  Ragweed plant response rating (0 to 100 scale): 80
[7]; [21]
  Ragweed plant response rating (0 to 100 scale): 100
[8]; Postemergence, 31 g ai/ha
  Corn plant response rating (0 to 100 scale): 0
[8]; [21]
  Corn plant response rating (0 to 100 scale): 20
[9]; Postemergence, 31 g ai/ha
  Blackgrass plant response rating (0 to 100 scale): 20
[9]; [21]
  Blackgrass plant response rating (0 to 100 scale): 40
[10]; Postemergence, 31 g ai/ha
  Wheat plant response rating (0 to 100 scale): 0
[10]; [21]
  Wheat plant response rating (0 to 100 scale): 0
[11]; Postemergence, 31 g ai/ha
  Foxtail, Giant plant response rating (0 to 100 scale): 30
[11]; [21]
  Foxtail, Giant plant response rating (0 to 100 scale): 80
[12]; Postemergence, 31 g ai/ha
  Pigweed plant response rating (0 to 100 scale): 70
[12]; [21]
  Pigweed plant response rating (0 to 100 scale): 90
[13]; Postemergence, 31 g ai/ha
  Galium plant response rating (0 to 100 scale): 90
[13]; [21]
  Galium plant response rating (0 to 100 scale): 100
[14]; Postemergence, 31 g ai/ha
  Barnyardgrass plant response rating (0 to 100 scale): 50
[14]; [21]
  Barnyardgrass plant response rating (0 to 100 scale): 80
[15]; 125 g ai/ha
  Kochia plant response rating (0 to 100 scale): 80
[15]; [22]
  Kochia plant response rating (0 to 100 scale): 60
[16]; 125 g ai/ha
  Ryegrass, Italian plant response rating (0 to 100 scale): 100
[16]; [22]
  Ryegrass, Italian plant response rating (0 to 100 scale): 30
[17]; 125 g ai/ha
  Ragweed plant response rating (0 to 100 scale): 90
[17]; [22]
  Ragweed plant response rating (0 to 100 scale): 30
[18]; 125 g ai/ha
  Foxtail, Giant plant response rating (0 to 100 scale): 90
[18]; [22]
  Foxtail, Giant plant response rating (0 to 100 scale): 40
[19]; 125 g ai/ha
  Pigweed plant response rating (0 to 100 scale): 30
[19]; [22]
  Pigweed plant response rating (0 to 100 scale): 30
[20]; 125 g ai/ha
  Barnyardgrass plant response rating (0 to 100 scale): 50
[20]; [22]
  Barnyardgrass plant response rating (0 to 100 scale): 60
